Test results: patent publication US20260159533A1, “INHIBITORS OF COMPLEMENT FACTORS AND USES THEREOF” (Annexon, Inc., priority 2022, published 2026)
Counter-ions that a name gives are not always drawn.

Target: T1, human C1s protein (Homo sapiens, UniProt P09871)
T1 construct: purchased R&D Systems or Complement Technologies 2060-SE or A104
T1 sequence (P09871 16-688): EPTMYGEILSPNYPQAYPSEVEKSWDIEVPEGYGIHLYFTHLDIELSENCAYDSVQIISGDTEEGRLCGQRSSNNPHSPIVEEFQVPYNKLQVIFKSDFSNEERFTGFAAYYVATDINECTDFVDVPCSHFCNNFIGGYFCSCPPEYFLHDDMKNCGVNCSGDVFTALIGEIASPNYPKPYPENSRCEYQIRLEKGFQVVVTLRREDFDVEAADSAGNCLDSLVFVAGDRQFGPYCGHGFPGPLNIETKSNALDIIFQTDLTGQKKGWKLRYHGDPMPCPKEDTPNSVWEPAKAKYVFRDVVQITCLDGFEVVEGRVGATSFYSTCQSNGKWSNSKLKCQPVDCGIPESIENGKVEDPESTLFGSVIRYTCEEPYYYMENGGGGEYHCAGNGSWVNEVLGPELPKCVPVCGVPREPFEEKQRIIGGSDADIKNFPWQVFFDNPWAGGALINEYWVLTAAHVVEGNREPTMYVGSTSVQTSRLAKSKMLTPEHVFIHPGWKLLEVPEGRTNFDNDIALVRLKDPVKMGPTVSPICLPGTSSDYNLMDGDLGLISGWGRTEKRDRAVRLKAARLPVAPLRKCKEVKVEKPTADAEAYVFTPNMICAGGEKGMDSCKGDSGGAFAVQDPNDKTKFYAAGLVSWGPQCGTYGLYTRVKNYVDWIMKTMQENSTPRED
Experiment: recombinant C1s enzymatic assay (YLGR-Rh110-dPro substrate hydrolysis, fluorescence)
Assay type: biochemical
Conditions: recombinant human C1s 2.5 nM, substrate YLGR-Rh110-dPro 20 μM, 15 min pre-incubation, 60 min RT; read-out: rec. hC11s pIC50 (converted)
Protocol: Compound testing in the purified or recombinant C1s enzymatic assay C1s is a serine protease; its enzymatic activity is measured in vitro by the hydrolysis of the synthetic substrate YLGR-Rh110-dPro (Kerr F K, O'Brien G, Quinsey N S, Whisstock J C, Boyd S, de la Banda M G, Kaiserman D, Matthews A Y, Bird P I, Pike R N. Elucidation of the substrate specificity of the Cis protease of the classical complement pathway. J. Biol. Chem. (2005) 280, 39510-39514). The enzyme cleaves the substrate with the release of Rh110 which is highly fluorescent. Cis inhibitors prevent the hydrolysis of the substrate thus resulting in a decrease of the signal.
The recombinant C1s enzymatic assay is performed using the human C1s protein (R&D Systems, 2060-SE or Complement Technologies, A104). The assay buffer composition is: 50 mM HEPES pH 7.5 (Sigma, H3375), 150 mM NaCl (Sigma, S7653), 0.2% PEG 8000 (VWR, AA43443-22), 0.01% Pluronic F127 (Sigma, P2243). On the day of the experiment 0.1 mg/mL BSA (Sigma, B4287) is added fresh to the buffer. The test item stock solutions are serially diluted 1:3 or 1:4 or 1:5 with DMSO, 11-point curves, in a 384-well compound plate. Nafamostat concentration curve is always included in the assay plate as a reference control.
The assay plate is prepared by dispensing 0.25 μL from compound plate into a 384-well black assay plate (assay plate, Greiner Fluotrac 200, 781076, VWR 736-0140). The high controls are prepared dispensing in 0.25 μL DMSO in column 23, rows AH or AP and low controls with 0.25 μL of 0.1 μM Nafamostat. Cis solution is prepared as 2× of the 2.5 nM final assay concentration. The YLGR-Rh110-dPro substrate is prepared as 2× of the final assay concentration of 20 μM. 5 μL/well of 2× enzyme solution is dispensed and pre-incubated for 15 min with the compounds. The enzymatic reaction is the started with 5 μL/well of the 2× substrate solution. The plate is incubated for 60 min RT in the dark and fluorescence is measured (ex 485/em 535 nm) using an Envision (PerkinElmer) or an equivalent instrument.

Compound	IC50 [nM]
COc1cc(-n2cc(C(F)F)cn2)c(-c2ccc3c(N)cnnc3c2)cc1B(O)O [Example 29, [5-(4-aminocinnolin-7-yl)-4-[4-(difluoromethyl)-1H-pyrazol-1-yl]-2-methoxyphenyl]boronic acid formic acid salt]	0.977
COc1cc(B(O)O)cc(-c2ccc3c(N)cnnc3c2)c1-n1cc(C(F)F)cn1 [Example 30, [3-(4-aminocinnolin-7-yl)-4-[4-(difluoromethyl)-1H-pyrazol-1-yl]-5-methoxyphenyl]boronic acid formic acid salt]	2.24
COc1cc(-c2nc[nH]n2)c(-c2ccc3c(N)cnnc3c2)cc1B(O)O [Example 31, [5-(4-aminocinnolin-7-yl)-2-methoxy-4-(1H-1,2,4-triazol-3-yl)phenyl]boronic acid]	1.05
COc1cc(-c2ncco2)c(-c2ccc3c(N)cnnc3c2)cc1B(O)O [Example 32, [5-(4-aminocinnolin-7-yl)-2-methoxy-4-(1,3-oxazol-2-yl)phenyl]boronic acid formic acid salt]	0.832
COc1cc(-n2nccn2)c(-c2ccc3c(N)cnnc3c2)cc1B(O)O [Example 33, [5-(4-aminocinnolin-7-yl)-2-methoxy-4-(2H-1,2,3-triazol-2-yl)phenyl]boronic acid]	1.07
Nc1cnnc2cc(-c3cc(B(O)O)c(OC4CC(F)(F)C4)cc3-n3cccn3)ccc12 [Example 34, [5-(4-aminocinnolin-7-yl)-2-(3,3-difluorocyclobutoxy)-4-(1H-pyrazol-1-yl)phenyl]boronic acid formic acid salt]	11.5
COc1cc(-c2cc[nH]n2)c(-c2ccc3c(N)cnnc3c2)cc1B(O)O [Example 36, [5-(4-aminocinnolin-7-yl)-2-methoxy-4-(1H-pyrazol-3-yl)phenyl]boronic acid formic acid salt]	1.29
COc1cnn(-c2cc(OC)c(B(O)O)cc2-c2ccc3c(N)cnnc3c2)c1 [Example 37, [5-(4-aminocinnolin-7-yl)-2-methoxy-4-(4-methoxypyrazol-1-yl)phenyl]boronic acid formic acid salt]	0.912
COc1cc(-c2nccs2)c(-c2ccc3c(N)cnnc3c2)cc1B(O)O [Example 38, [5-(4-aminocinnolin-7-yl)-2-methoxy-4-thiazol-2-yl-phenyl]boronic acid formic acid salt]	1.02
CC(C)Oc1cc(-n2cccn2)c(-c2ccc3c(N)cnnc3c2)cc1B(O)O [Example 39, [5-(4-aminocinnolin-7-yl)-2-propan-2-yloxy-4-pyrazol-1-ylphenyl]boronic acid formic acid salt]	2.69
COc1cc(-n2cc(F)cn2)c(-c2ccc3c(N)cnnc3c2)cc1B(O)O [Example 40, [5-(4-aminocinnolin-7-yl)-4-(4-fluoropyrazol-1-yl)-2-methoxyphenyl]boronic acid]	1.58
Cc1cc(-c2cc[nH]n2)c(-c2ccc3c(N)cnnc3c2)cc1B(O)O [Example 41, [5-(4-aminocinnolin-7-yl)-2-methyl-4-(1H-pyrazol-3-yl)phenyl]boronic acid]	24.5
Cc1cc(-c2ncco2)c(-c2ccc3c(N)cnnc3c2)cc1B(O)O [Example 42, [5-(4-aminocinnolin-7-yl)-2-methyl-4-oxazol-2-yl-phenyl]boronic acid formic acid salt]	2.04
COc1cc(-c2c[nH]cn2)c(-c2ccc3c(N)cnnc3c2)cc1B(O)O [Example 45, [5-(4-aminocinnolin-7-yl)-4-(1H-imidazol-4-yl)-2-methoxyphenyl]boronic acid]	5.5
COc1cc(-c2ncc[nH]2)c(-c2ccc3c(N)cnnc3c2)cc1B(O)O [Example 46, [5-(4-aminocinnolin-7-yl)-4-(1H-imidazol-2-yl)-2-methoxy-phenyl]boronic acid]	3.89
COc1cc(-n2cccn2)c(-c2ccc3c(N)nnc(C)c3c2)cc1B(O)O [Example 47, [5-(1-amino-4-methyl-phthalazin-6-yl)-2-methoxy-4-pyrazol-1-yl-phenyl]boronic acid]	1.7
COc1cc(-n2cccn2)c(-c2ccc3c(N)nccc3c2)cc1B(O)O [Example 48, [5-(1-amino-6-isoquinolyl)-2-methoxy-4-pyrazol-1-yl-phenyl]boronic acid formic acid salt]	3.89
COc1cc(-c2ncc(C)s2)c(-c2ccc3c(N)cnnc3c2)cc1B(O)O [Example 50, [5-(4-aminocinnolin-7-yl)-2-Methoxy-4-(5-methylthiazol-2-yl)phenyl]boronic acid formic acid salt]	1.17
Cc1cc(-c2nccs2)c(-c2ccc3c(N)cnnc3c2)cc1B(O)O [Example 53, [5-(4-aminocinnolin-7-yl)-2-methyl-4-thiazol-2-yl-phenyl]boronic acid formic acid salt]	9.55
COc1cc(-c2cn[nH]c2)c(-c2ccc3c(N)cnnc3c2)cc1B(O)O [Example 54, [5-(4-aminocinnolin-7-yl)-2-methoxy-4-(1H-pyrazol-4-yl)phenyl]boronic acid]	6.31
COc1cc(-n2cc(N3CCOCC3)cn2)c(-c2ccc3c(N)cnnc3c2)cc1B(O)O [Example 58, [5-(4-aminocinnolin-7-yl)-2-methoxy-4-(4-morpholinopyrazol-1-yl)phenyl]boronic acid formic acid salt]	2
Nc1cnnc2cc(-c3cc(B(O)O)ccc3-c3ccccn3)ccc12 [Example 63, [3-(4-aminocinnolin-7-yl)-4-(2-pyridyl)phenyl]boronic acid formic acid salt]	15.5
Nc1cnnc2cc(-c3cc(B(O)O)c(Oc4ccccc4)cc3-n3cccn3)ccc12 [Example 64, [5-(4-aminocinnolin-7-yl)-2-phenoxy-4-pyrazol-1-yl-phenyl]boronic acid formic acid salt]	12.3
Nc1cnnc2cc(-c3cc(B(O)O)cc4c3-n3nccc3CCO4)ccc12 [Example 65, [[10-(4-aminocinnolin-7-yl)-4,5-dihydropyrazolo[5,1-d][1,5]benzoxazepin-8-yl]boronic acid formic acid salt]	2.4
COc1cnc(-c2cc(OC)c(B(O)O)cc2-c2ccc3c(N)cnnc3c2)s1 [Example 68, [5-(4-aminocinnolin-7-yl)-2-methoxy-4-(5-methoxy-1,3-thiazol-2-yl)phenyl]boronic acid formic acid salt]	0.692
Nc1cnnc2cc(-c3cc4c(cc3-n3cccn3)OCCOB4O)ccc12 [Example 70, 8-(4-aminocinnolin-7-yl)-7-(1H-pyrazol-1-yl)-3,4-dihydro-1H-2,5,1-benzodioxaborepin-1-ol]	1.26
CC1COB(O)c2cc(-c3ccc4c(N)cnnc4c3)c(-n3cccn3)cc2O1 (centres unmarked) [Example 71, 7-(1-hydroxy-4-methyl-7-pyrazol-1-yl-3,4-dihydro-2,5,1-benzodioxaborepin-8-yl)cinnolin-4-amine]	2.09
Nc1cnnc2cc(-c3cc4c(cc3-c3ncco3)OCCOB4O)ccc12 [Example 74, 7-(1-hydroxy-7-oxazol-2-yl-3,4-dihydro-2,5,1-benzodioxaborepin-8-yl)cinnolin-4-amine]	1.12
COc1cc(-c2ncc(F)s2)c(-c2ccc3c(N)cnnc3c2)cc1B(O)O [Example 75, [5-(4-aminocinnolin-7-yl)-4-(5-fluorothiazol-2-yl)-2-methoxy-phenyl]boronic acid]	0.977
